Consider one compound from paper PMC9847679, “The anti-breast cancer stem cell properties of gold(I)-non-steroidal anti-inflammatory drug complexes” (Chemical Science, 2022).

This data set in a line: Water-octanol partition coefficient (shake-flask, UV-vis). Type of data set: physicochemical. The following applies: room temperature 24 h. As to the method: Measurement of water-octanol partition coefficient (LogP). The LogP values for 1-8 were determined using the shake-flask method and UV-vis spectroscopy. The 1-octanol used in this experiment was pre-saturated with water. An aqueous solution of 1-8 (500 μL, 100 μM) was incubated with 1-octanol (500 μL) in a 1.5 mL tube. The tube was shaken at room temperature for 24 h. The two phases were separated by centrifugation and the 1-8 content in each phase was determined by UV-vis spectroscopy. […]

Each structure is given as a SMILES string.

In turn, `COc1ccc2c(c1)c(CC(=O)[O][Au][PH](c1ccccc1)(c1ccccc1)c1ccccc1)c(C)n2C(=O)c1ccc(Cl)cc1` [complex 1] registered a LogP value of 1.64 ± 0.42.
